Source: PMC9705858, “Anti-Endotoxin 9-Meric Peptide with Therapeutic Potential for the Treatment of Endotoxemia” (Journal of Microbiology and Biotechnology, 2020)
In brackets after ≈: the same amount, converted by molar mass. Like-named read-outs stand apart in the source and are kept apart here. Non-standard residues stand in square brackets, D forms with d. Residues, ends and D or L forms follow the SMILES beside them.

Columns and labels:
[1] = Limulus amebocyte lysate (LAL) assay, LPS neutralization; type: biochemical, Escherichia coli; settings: 50 μM peptide, 2 ng/ml LPS, 15 min at 37°C
Procedure: To check the endotoxin clearance properties of peptides, LAL assay was performed according to the protocol provided in the kit (Pierce LAL Chromogenic Endotoxin Quantitation Kit, Thermo Fisher Scientific). Escalating concentrations of peptides (up to 50 μM) were added with 2 ng/ml LPS (E. coli O111:B4, Sigma-Aldrich, USA) for 15 min at 37°C. To this content, an equal volume of LAL reagent was added and incubated for 15 min and then chromogenic substrate was added. The contents were incubated for another 10 min and 25% acetic acid was used to stop the reaction. The end color (yellow) formed due to […] of substrate was read at 405 nm. LL-37 was used as a control.

RAW264.7 cells = assay: Cytotoxicity, WST-8 cell proliferation assay; type: cell-based, mouse; settings: 24 h, mean of three experiments
Procedure: (§1) The capacity of peptides in the lysis of erythrocytes was analyzed using sheep red blood cells (RBCs) as described previously. Cytotoxicity was further assessed in mouse macrophage RAW264.7 cells, which were cultured in Dulbecco’s modified Eagle medium (Thermo Fischer Scientific Inc., USA) enriched with fetal bovine serum (10%) and antibiotics (penicillin/streptomycin, 100 IU/ 100 mg/L) at 37°C in a CO2 incubator. The cytotoxic effect of Pro9-3 series peptides against RAW264.7 cells was then determined using WST-8 Cell Proliferation Assay Kit (Biomax Co. Ltd., Korea). The analysis was carried out according to our previously reported method.
Fig. 1 Cytotoxicities of peptides. (A) Dose-dependent hemolytic activities in sheep red blood cell (sRBC) caused by peptides. (B) Dose-response cytotoxicities of the Pro9-3 and its analogs against RAW264.7 cells for 24 h. Melittin was used as a positive control. The values are expressed as the mean ± SEM of three independent experiments: *p < 0.05; **p < 0.01; ***p < 0.001; ns, not significant.

[2] = system: MDR Escherichia coli CCARM 1229; type: cell-based; settings: MDREC 1229; 99% growth inhibition; 2 × 10^5 CFU/ml, 37°C, 16 h, A600
Text: (§2) The gram-negative bacterial strains Escherichia coli (KCTC 1682) and Acinetobacter baumannii (KCCM 40203) were purchased from the Korean Collection for Type Cultures (Korea) and the Korean Culture Center of Microorganisms (Korea), respectively. The MDR gram-negative strains Escherichia coli CCARM 1229, Escherichia coli CCARM 1238, Acinetobacter baumannii CCARM 12010, and Acinetobacter baumannii CCARM 12220 were obtained from the Culture Collection of Antibiotic-Resistant Microbes at Seoul Women’s University (South Korea).
(§3) The antibacterial properties of all peptides were determined by measuring the Minimum Inhibitory Concentration (MIC) as described previously. […] Two-fold serial dilutions of respective peptides were inoculated in 96-well plates in Mueller-Hinton medium, followed by the addition of bacterial suspensions (2 × 10^5 CFU/ml) at the log growth phase. The plates were incubated at 37°C for 16 h, and absorbance was read at 600 nm using a SpectraMAX microplate reader (Molecular Devices, USA).

[3] = system: Escherichia coli (KCTC 1682); type: cell-based
Text: as §2, §3

[4] = system: MDR Escherichia coli CCARM 1238; type: cell-based; settings: MDREC 1238; 99% growth inhibition; 2 × 10^5 CFU/ml, 37°C, 16 h, A600
Text: as §2, §3

[5] = system: MDR Acinetobacter baumannii CCARM 12010; type: cell-based; settings: MDRAB 12010; 99% growth inhibition; 2 × 10^5 CFU/ml, 37°C, 16 h, A600
Text: as §2, §3

[6] = system: MDR Acinetobacter baumannii CCARM 12220; type: cell-based; settings: MDRAB 12220; 99% growth inhibition; 2 × 10^5 CFU/ml, 37°C, 16 h, A600
Text: as §2, §3

[7] = system: Acinetobacter baumannii (KCCM 40203); type: cell-based
Text: as §2, §3

sheep red blood cells = assay: Hemolysis of sheep red blood cells; type: cell-based
Procedure: as §1

[8] = system: gram-negative bacterial strains and MDR bacterial strains; assay: Geometric mean of MICs over all tested bacterial strains and relative selective index; type: cell-based, Escherichia coli, Acinetobacter baumannii; settings: larger values indicate greater cell selectivity
Procedure: The geometric means (GM) of MICs were assessed to evaluate the antibacterial activities of Pro9-3 series against tested bacterial strains.

[9] = E. coli KCTC 1682, 99% growth inhibition, 2 × 10^5 CFU/ml, 37°C, 16 h, A600
[10] = A. baumannii KCCM 40203, 99% growth inhibition, 2 × 10^5 CFU/ml, 37°C, 16 h, A600

Compound | LPS neutralization (LAL assay) [1] | Survival of RAW264.7 macrophage cells (RAW264.7 cells; 50 μM peptide) | Minimal inhibitory concentration (MIC) [2] | Minimal inhibitory concentration (MIC) [3, 9] | Minimal inhibitory concentration (MIC) [4] | Minimal inhibitory concentration (MIC) [5] | Minimal inhibitory concentration (MIC) [6] | Minimal inhibitory concentration (MIC) [7, 10] | HC10 (peptide concentration which induces 10% hemolysis) (sheep red blood cells) | Survival of RAW264.7 macrophage cells (RAW264.7 cells; 100 μM peptide) | Minimal inhibitory concentration (MIC) ([3]; KCTC 1682, 16 h) | Minimal inhibitory concentration (MIC) ([7]; KCCM 40203, 16 h) | Hemolytic activity in sRBC (in words) (sheep red blood cells; escalated dose of peptides, Fig. 1A) | Relative selective index (HC10/GM of the MIC) [8]
LL-37 | 91% |  |  |  |  |  |  |  |  |  |  |  |  | 
CC[C@@H](C)[C@@H](NC(=O)[C@@H](C)NC(=O)[C@@H](CC(C)C)NC(=O)[C@@H](Cc1c[nH]c2ccccc12)NC(=O)[C@@H](CC(C)C)NC(=O)[C@H](N)CCCCN)C(=O)N[C@H](Cc1c[nH]c2ccccc12)C(=O)N[C@H](CCCCN)C(=O)N[C@H](CCCCN)C(N)=O [Pro9-3D-K] (H-[dK][dL][dW][dL][dA][dI][dW][dK][dK]-NH2) |  | 71% | 32 µM (≈ 37.9 µg/mL) | 16 µM (≈ 19 µg/mL) | 16 µM (≈ 19 µg/mL) | 32 µM (≈ 37.9 µg/mL) | 32 µM (≈ 37.9 µg/mL) | 32 µM (≈ 37.9 µg/mL) |  |  |  |  |  | 
CC[C@H](C)[C@H](NC(=O)[C@H](C)NC(=O)[C@H](CC(C)C)NC(=O)[C@H](Cc1c[nH]c2ccccc12)NC(=O)[C@H](CC(C)C)NC(=O)[C@@H](N)CCCNC(=N)N)C(=O)N[C@@H](Cc1c[nH]c2ccccc12)C(=O)N[C@@H](CCCNC(=N)N)C(=O)N[C@@H](CCCNC(=N)N)C(N)=O [Pro9-3] (H-RLWLAIWRR-NH2) |  |  | 16 µM (≈ 20.3 µg/mL) |  | 32 µM (≈ 40.6 µg/mL) | 16 µM (≈ 20.3 µg/mL) | 16 µM (≈ 20.3 µg/mL) |  | 200 µM | 100% | 16 µM (≈ 20.3 µg/mL) | 16 µM (≈ 20.3 µg/mL) |  | 
CC[C@@H](C)[C@@H](NC(=O)[C@@H](C)NC(=O)[C@@H](CC(C)C)NC(=O)[C@@H](Cc1c[nH]c2ccccc12)NC(=O)[C@@H](CC(C)C)NC(=O)[C@H](N)CCCNC(=N)N)C(=O)N[C@H](Cc1c[nH]c2ccccc12)C(=O)N[C@H](CCCNC(=N)N)C(=O)N[C@H](CCCNC(=N)N)C(N)=O [Pro9-3D] (H-[dR][dL][dW][dL][dA][dI][dW][dR][dR]-NH2) |  | 40% | 8 µM (≈ 10.1 µg/mL) | 8 µM (≈ 10.1 µg/mL) | 4 µM (≈ 5.07 µg/mL) | 8 µM (≈ 10.1 µg/mL) | 8 µM (≈ 10.1 µg/mL) |  | 200 µM |  |  | 4 µM (≈ 5.07 µg/mL) |  | 
CC[C@H](C)[C@H](NC(=O)[C@H](C)NC(=O)[C@H](CC(C)C)NC(=O)[C@H](Cc1c[nH]c2ccccc12)NC(=O)[C@H](CC(C)C)NC(=O)[C@@H](N)CCCCN)C(=O)N[C@@H](Cc1c[nH]c2ccccc12)C(=O)N[C@@H](CCCCN)C(=O)N[C@@H](CCCCN)C(N)=O [Pro9-3-K] (H-KLWLAIWKK-NH2) |  |  | 64 µM (≈ 75.8 µg/mL) | 64 µM (≈ 75.8 µg/mL) | 64 µM (≈ 75.8 µg/mL) | 64 µM (≈ 75.8 µg/mL) | 64 µM (≈ 75.8 µg/mL) | 64 µM (≈ 75.8 µg/mL) |  | 100% |  |  |  | 
CC[C@H](C)[C@H](NC(=O)CN)C(=O)NCC(=O)N[C@@H](C)C(=O)N[C@H](C(=O)N[C@@H](CC(C)C)C(=O)N[C@@H](CCCCN)C(=O)N[C@H](C(=O)N[C@@H](CC(C)C)C(=O)N[C@H](C(=O)N[C@H](C(=O)NCC(=O)N[C@@H](CC(C)C)C(=O)N1CCC[C@H]1C(=O)N[C@@H](C)C(=O)N[C@@H](CC(C)C)C(=O)N[C@H](C(=O)N[C@@H](CO)C(=O)N[C@@H](Cc1c[nH]c2ccccc12)C(=O)N[C@H](C(=O)N[C@@H](CCCCN)C(=O)N[C@@H](CCCNC(=N)N)C(=O)N[C@@H](CCCCN)C(=O)N[C@@H](CCCNC(=N)N)C(=O)N[C@@H](CCC(N)=O)C(=O)N[C@@H](CCC(N)=O)C(N)=O)[C@@H](C)CC)[C@@H](C)CC)[C@@H](C)O)[C@@H](C)O)C(C)C)C(C)C [Melittin, reference compound] |  |  | 16 µM (≈ 45.5 µg/mL) |  | 32 µM (≈ 91.1 µg/mL) | 8 µM (≈ 22.8 µg/mL) | 8 µM (≈ 22.8 µg/mL) | 8 µM (≈ 22.8 µg/mL) |  |  |  |  | severe cytotoxicity even at low concentration | 0.06
